In patent publication US11078196B2, “Heteroaryl amides as inhibitors of protein aggregation” (UCB Biopharma SRL, priority 2014, dated 2021):
Like-named read-outs stand apart in the source and are kept apart here.

Assays:
Stability in SGF = type: in vitro ADME
[1] = In vivo pharmacokinetics and brain distribution, single i.v. or p.o. dose; set-up: species or system male C57BL/6 mice; conditions: mice; for clearance / bioavailability: male, C57BL/6, mouse, plasma; for clearance: read-out: PK Clearance; for bioavailability: po, read-out: Oral Bioavailablility
Procedure: The pharmacokinetics and brain distribution of the compounds described herein was determined in male C57BL/6 mice following single intravenous or oral dose administration. A group of 54 male mice were divided into two groups of 27 mice. […] Blood samples were collected pre-dose and at 0.08, 0.25, 0.5, 1, 2, 4, 8, and 24 h post-dose (i.v.), and pre-dose, and at 0.25, 0.5, 1, 2, 4, 6, 8 and 24 h post-dose (p.o.). Blood was collected from sets of three mice at each time point in labeled microcentrifuge tubes containing K2EDTA as anticoagulant. Plasma samples were separated by centrifugation of whole blood and stored below −70° C. until bioanalysis. After collecting blood samples, mice were humanely euthanized by CO2 asphyxiation and brain was collected at the same time points. Following collection, the brain samples were washed in ice-cold phosphate buffer saline (pH 7.4), gently dried on filter paper, weighed and placed in polypropylene tubes. Further brain samples were homogenized using phosphate buffer saline pH 7.4 and the total homogenate volume was thrice the brain weight. The samples were then stored below −70° C. until bioanalysis. All samples were processed for analysis by protein precipitation using acetonitrile and analyzed with fit-for-purpose LC/MS/MS method (LLOQ: 1.01 ng/mL for plasma and brain). Pharmacokinetic parameters were calculated using the non-compartmental analysis tool of Phoenix WinNonlin (Version 6.3).

Plasma stability = type: in vitro ADME
PDNG78 transgenic mice = experiment: Longitudinal retinal imaging of ASYN-GFP; type: in vivo, mouse; conditions: 5 mg/kg i.p., after approximately 60 days through 90 days
Procedure: A total of four imaging sessions were conducted, including a baseline prior to starting treatments and three subsequent imaging sessions at approximately one-month intervals.

[2] = tested on: Line 61 ASYN transgenic mouse; experiment: Round Beam Task, sensorimotor impairment; type: in vivo; conditions: for number of slips, Round Beam Task: Example 6A, three months, vs. vehicle-treated transgenic mice; for number of slips, Round Beam Motor Performance assay: Example 6B
Source text: The Round Beam Task was used to assess sensorimotor impairments, using number of slips as the primary outcome measure (FIG. 4).

[3] = tested on: transgenic ASYN protein in Line 61 ASYN transgenic mouse; experiment: Western Blot analysis of cerebral cortical and hippocampal brain homogenates; type: in vivo
Procedure: (§1) Example 1 was evaluated in a transgenic mouse model of PD overexpressing human wild-type ASYN under the Thy-1 promoter (also referred to as the Line 61 ASYN transgenic mouse), by administering Example […] 0, 1, or 5 mg/kg (i.p.) once daily (five days per week) for three months and then assessing PD-relevant sensorimotor performance, biochemical alterations, and neuropathological changes in ASYN and related proteins.
(§2) Biochemical evaluations of oligomeric proteins using A11 antibody dot blot methods (including ASYN) in cortical homogenates were performed.

[4] = tested on: Line 61 ASYN transgenic mice; experiment: Fecal boli counts in a novel environment; type: in vivo, mouse
Procedure: An earlier published study included a report that Line 61 ASYN transgenic mice have decreased colonic motility, fecal output, and weight (Wang, L. et al. Neurogastroenterol. Motil. 2012, 24(9), e425-436). For the present study, an assessment of fecal boli counts was conducted in conjunction with a spontaneous locomotor activity test session. At the conclusion of a five-minute test session, the experimenter counted the number of fecal boli present in the test chamber, and the results are presented in FIG. 9.

[5] = tested on: ASYN in Line 61 ASYN transgenic mouse; experiment: ASYN immunolabeling in cortical neuropil and neuronal cell bodies; type: in vivo; conditions: for alpha-synuclein immunolabeling in cortical neuropil: p<0.0001 vs. vehicle-treated ASYN transgenic mice
Procedure: These neuropathological findings were reconfirmed in the current study using the methods described by Masliah and colleagues. Example 1 administration (1 and 5 mg/kg dosing) produced statistically significant decreases in ASYN levels as determined by effects on ASYN immunolabeling (FIGS. 6 and 7). There was a statistically significant increase in ASYN immunolabeling with the Millipore anti-alpha-synuclein antibody in the cortical neuropil (****p<0.0001) (FIG. 6A) and in neuronal cell bodies of ASYN transgenic mice (**p<0.01) (FIG. 6B) relative to non-transgenic/vehicle controls.

[6] = tested on: cardiac ASYN in Line 61 ASYN transgenic mice; experiment: Post-mortem Western blot of cardiac ASYN; type: in vivo, mouse; conditions: p<0.0001 vs. vehicle-treated ASYN transgenic mice
Source text: Like bowel dysfunction, alterations in cardiac biochemistry and function may precede Parkinson's disease diagnosis by 20 years or more. Well-characterized functional alterations in PD patients include altered heart rate variability and orthostatic hypotension (Kaufmann, H. et al., Handbook Clin. Neurol. 2013, 117, 259-278; Jain, S. et al., Neurobiol. Dis. 2012, 46(3), 572-580; Senard, J. M. et al., Rev. Neurol. (Paris) 2010, 166(10), 779-784; Post, K. K. et al., Parkinsonism Relat. Disord. 2008, 14(7), 524-531). These functional changes are accompanied by pathological findings of loss of myocardial noradrenergic innervation and the presence of ASYN aggregates in cardiac autonomic nerves (Jellinger, K. A., J. Neurol. Sci. 2011, 310 (1-2), 107-111). […] For the present study, post-mortem Western blot evaluations of cardiac ASYN by Western blot analysis were performed to confirm the presence in ASYN transgenic cardiac tissue and to evaluate the effects of Example 1 on transgenic cardiac levels of ASYN (FIG. 10). There was a statistically significant increase in detected cardiac levels of ASYN in vehicle-treated ASYN transgenic mice relative to vehicle-treated non-transgenic control mice (***p<0.001).

[7] = tested on: oligomers in Line 61 ASYN transgenic mouse; experiment: A11 antibody dot blot of oligomeric proteins in cortical homogenates; type: in vivo; conditions: 5 mg/kg; p<0.001 vs. vehicle-treated ASYN transgenic mice
Procedure: as §1, §2

| Stability in SGF (Stability in SGF) | B:P ratio (PO) ([1]; at 10 mg/kg) | bioavailability ([1]; at 10 mg/kg) | B:P ratio (IV) ([1]; at 10 mg/kg) | clearance ([1]; iv, at 10 mg/kg) | Plasma Stability (Plasma stability; @ 120 min) | Compound | also measured |
| --- | --- | --- | --- | --- | --- | --- | --- |
| stable | 0.05 | 79% | 0.18 | 24 mL/min/kg | 100% @ | CCCCC(Cc1c[nH]c2ccccc12)NC(=O)c1cnc(CCN2CCN(C)CC2)s1 (centres unmarked) [Example 5, N-(1-(1H-Indol-3-yl)hexan-2-yl)-2-(2-(4-methylpiperazin-1-yl)ethyl)thiazole-5-carboxamide] | – |
| – | 0.15 | 13% | – | – | – | CCCCC(Cc1c[nH]c2ccc(F)cc12)NC(=O)c1cnc(CCN2CCOCC2)s1 (centres unmarked) [Example 10, N-(1-(5-Fluoro-1H-indol-3-yl)hexan-2-yl)-2-(2-morpholinoethyl)thiazole-5-carboxamide] | clearance ([1]; intravenous, at 2 mg/kg): 75 mL/min/kg; B:P ratio (IV) ([1]; at 2 mg/kg): 0.8 |
| – | 0.3 | 57% | 1.4 | 37 mL/min/kg | – | CCCC[C@@H](Cc1c[nH]c2ccccc12)NC(=O)c1cnc(N2CCN(C)CC2)s1 [Example 27, (S)-N-(1-(1H-Indol-3-yl)hexan-2-yl)-2-(4-methylpiperazin-1-yl)thiazole-5-carboxamide] | – |
| – | 0.4 | 14% | 2.1 | 69 mL/min/kg | – | CCCC[C@H](Cc1c[nH]c2ccccc12)NC(=O)c1cnc(N2CCN(C)CC2)s1 [Example 28, (R)-N-(1-(1H-Indol-3-yl)hexan-2-yl)-2-(4-methylpiperazin-1-yl)thiazole-5-carboxamide] | – |

The next lines start with the molecule.

| Compound | Stability in SGF (Stability in SGF) | B:P ratio (PO) ([1]; at 10 mg/kg) | bioavailability ([1]; at 10 mg/kg) | B:P ratio (IV) ([1]; at 10 mg/kg) | clearance ([1]; iv, at 10 mg/kg) | Plasma Stability (Plasma stability; @ 120 min) | also measured |
| --- | --- | --- | --- | --- | --- | --- | --- |
| CCCCNC(=O)C(Cc1c[nH]c2ccccc12)NC(=O)c1cnc(N2CCNCC2)s1 (centres unmarked) [Comp. A, reference compound] | stable | 0.05 | – | – | – | – | clearance ([1]; intravenous, at 10 mg/kg): 71 mL/min/kg; Plasma Stability (Plasma stability; @ 60 min): 35% @ |
| CCCNC(=O)NC(Cc1c[nH]c2ccccc12)NC(=O)c1cnc(N2CCN(C)CC2)s1 (centres unmarked) [Comp. B, reference compound] | unstable | 0.08 | 14% | 0.1 | – | – | clearance ([1]; intravenous, at 10 mg/kg): 258 mL/min/kg; Plasma Stability (Plasma stability; @ 60 min): 89% @ |
| CCCCC(Cc1c[nH]c2ccccc12)NC(=O)c1cnc(N2CCN(C)CC2)s1 (centres unmarked) [Example 1, N-(1-(1H-Indol-3-yl)hexan-2-yl)-2-(4-methylpiperazin-1-yl)thiazole-5-carboxamide] | stable | 0.4 | 53% | 2.0 | 81 mL/min/kg | 100% @ | percentage of ASYN-GFP positive area in retinal images (PDNG78 transgenic mice; p<0.001 vs. vehicle): decreased; number of ASYN-GFP positive particles in retinae (PDNG78 transgenic mice; p<0.01 vs. vehicle): decreased; number of slips, Round Beam Task ([2]; 1 mg/kg i.p. once daily): statistically significantly reductions in slips; number of slips, Round Beam Task ([2]; 5 mg/kg i.p. once daily): statistically significantly reductions in slips; number of slips, Round Beam Motor Performance assay ([2]; 0.5 mg/kg): non-statistically significant decrease in slips; number of slips, Round Beam Motor Performance assay ([2]; 1 mg/kg, p<0.01 vs. vehicle-treated ASYN transgenic mice): statistically significant improvement (decreased slips); transgenic ASYN protein levels [3]: statistically significant reductions; number of fecal boli produced ([4]; ASYN transgenic mice, 0.5 mg/kg, p<0.05 vs. vehicle): restored function; number of fecal boli produced ([4]; ASYN transgenic mice, 1 mg/kg, p<0.001 vs. vehicle): restored function; number of fecal boli produced ([4]; non-transgenic mice): no effect; alpha-synuclein immunolabeling in cortical neuropil ([5]; 1 mg/kg): statistically significant decreases in alpha-synuclein immunolabeling; number of ASYN immunolabeled neuron cell bodies ([5]; 5 mg/kg): non-statistically significant decrease; alpha-synuclein immunolabeling in cortical neuropil ([5]; 5 mg/kg): statistically significant decreases in alpha-synuclein immunolabeling; cardiac levels of ASYN ([6]; 0.5 mg/kg): statistically significant normalizations of ASYN levels; cardiac levels of ASYN ([6]; 1 mg/kg): statistically significant normalizations of ASYN levels; oligomers (A11 immunostaining) in cytosolic fraction of frontal cortex [7]: statistically significant decrease in oligomers |
| CN1CCN(CCc2ncc(C(=O)NCCc3c[nH]c4ccccc34)s2)CC1 [Example 4, N-(2-(1H-Indol-3-yl)ethyl)-2-(2-(4-methylpiperazin-1-yl)ethyl)thiazole-5-carboxamide] | stable | 0.1 | 100% | 0.4 | 95 mL/min/kg | 25% @ | – |
